Experimental data reported in a melting point compilation (Tetko et al.; mined from patent text by program, amines drawn as free bases though some values may be those of a salt).

| SMILES | melting point [°C] |
| --- | --- |
| COc1c(Cl)ccc(-c2cc(N)c(Cl)c(C(=O)NOC(C)C)n2)c1F | 190 to 193 |
| C[C@@H]1COC(=O)N1c1nc(-c2cccc(C#N)c2)cs1 | 187 to 189 |
| CCOC(=O)C(C(=O)OCC)C(=O)c1ccc2oc3ncccc3c(=O)c2c1 | 137 to 138 |
| CCn1cc(C(=O)c2sc(NC(=O)c3ccncc3)nc2-c2ccco2)ccc1=O | 295 to 296 |
| O=C(O)c1ccc(N(CCOc2cccc3ccccc23)C(=O)C(F)(F)F)cc1 | 167 to 168 |
| Cc1cc(C2CC2)nc(NC(=O)NS(=O)(=O)c2cccc3c2OS(=O)(=O)C(C)C3)n1 (configuration not stated) | 216 to 217 |
| O=C(O)CN1C(=O)C(=Cc2c3ccccc3cc3ccccc23)SC1=S | 277 to 279 |
| CCCCCCCNC(=O)Nc1c(C(=O)NC2CCN(C(c3ccccc3)c3ccccc3)CC2)cccc1C(C)C | 209 to 212 |
| Nc1ccc(OCc2ccccn2)nn1 | 114 to 115 |
| Cc1c(C(=O)Nc2ccc(N3CCC(N(C)CCO)CC3)c(C#N)c2)cnn1-c1ccc(Cl)cc1 | 186 |
| CCOC(=O)c1nccc2c(C)c3c(cc12)c1cc(OC)ccc1n3CC | 149 |
| CC(C)(C)OC(=O)Nc1cc(N2CCC(OC3CCCCO3)CC2)c(-c2ccc(F)cc2)cc1NC(=O)CC(=O)c1cccc(-n2ccnc2)c1 (racemic) | 129 to 132 |
| COc1ccc(-c2[nH]nc3c2C(=O)c2c(NC(=O)CN4CCN(c5ccccn5)CC4)cccc2-3)cc1 | > 300 |
| CCc1nc2c(C)cc(C)nc2n1Cc1ccc(Nc2ccccc2)cc1 | 151 to 152 |
| CC(=O)c1cccc([C@H]2C[C@H]2NC(=O)Nc2ccc(Cl)cn2)c1 (racemic) | 144 to 145 |
| CCc1cn(C(C)(C)C(=O)N(C)C)nc1-c1ccccc1 | 108 to 111 |
| Cc1ccccc1OCc1ccccc1[N+](=O)[O-] | 83 |
| O=C(O)c1ccc(NCCOc2ccc(Cl)cc2Cl)cc1 | 203 to 205 |
| CC(C)(Cl)c1cc(C(C)(C)Cl)cc(C(C)(C)Cl)c1 | 64 |
| NS(=O)(=O)c1cc(C(=O)Nn2cnc3cc(C(F)(F)F)ccc32)ccc1Cl | 164 |
| CCn1cc(C(=O)O)c(=O)c2cc(F)c(N3CCC(C(C)N)C3)c(F)c21 (configuration not stated) | 212 to 217 |
| O=C(NCC1CCCC1)NCC1CCCC1 | 162 to 164 |
| O=S(=O)(Cc1ccccc1)N(c1ncc(-c2ccccc2)nc1Cc1ccccc1)S(=O)(=O)Cc1ccccc1 | 71.5 to 74.5 |
| NC(N)=Nc1nc(-c2cccc(CSc3nc4ccccc4[nH]3)n2)cs1 | 209 to 211 |
| CCOC(=O)c1cncc(C#N)c1 | 58 to 59 |

| SMILES | melting point [°C] |
| --- | --- |
| CCCCCCC1C(=O)NC(C(=O)SC2CCCCC2)(C(O)C2C=CCCC2)C1(C)O (configuration not stated) | 85 |
| COc1ccnc(C#N)c1OC | 133 |
| Nc1ccc2c(cnn2Cc2cccc(F)c2)c1 | 130 |
| Cc1oc2c(C)c(C)c(NC(=O)c3ccc(F)cc3)c(C)c2c1-c1ccccc1 | 242 to 245 |
| O=C(COc1ccc(C(=O)OCc2ccccc2)cc1)NN=C1C(=O)Nc2ccc(I)cc21 | 221 |
| CC(C)(COC(=O)c1cc(Cl)c(O)c(Cl)c1)Cc1ccc(CC(C)(C)COC(=O)c2cc(Cl)c(O)c(Cl)c2)cc1 | 203 to 204 |
| O=C1C=CCCC=CCCC=CCCC=C1 | 30 to 37 |
| C=CC=Cc1cc(Oc2cnc(N)nc2N)c(I)cc1C | 195 to 197 |
| CC(C)(C)[Si](OCC1OC(n2ccc(N)nc2=S)C(O)(CC[Si](C)(C)C)C1O)(c1ccccc1)c1ccccc1 (configuration not stated) | 126 |
| COc1ccc(CN(CCC(=O)O)c2nc(NC(=O)Nc3ccccc3OC)nc(Oc3ccc4ccccc4c3)n2)cc1 | 197 to 205 |
| ON=C(c1ccccc1)C(O)(c1ccccc1)c1ccccc1 | 150 to 152 |
| Cc1ccc(-c2ccccc2C(=O)O)cc1C(=O)NCC1CCCCCC1 | 188 to 189 |
| CC(C)(C)OC(=O)N1CCCC(Nc2cc(-c3ccc(F)c(NC(=O)c4cnc(C(C)(C)C)cn4)c3)n[nH]c2=O)C1 (configuration not stated) | 120 to 121 |
| Cc1ccc(CC#N)c(OCc2ccc(OCc3nc(-c4ccccc4)oc3C)cc2)n1 | 122 to 123 |
| ClC(Cl)c1cccc2nnsc12 | 131 to 133 |
| CCC1c2cccn2-c2ccc(F)cc2N1C(=O)c1cccc(O)c1 (configuration not stated) | 115 to 117 |
| Cc1oc(-c2ccccc2)nc1COc1ccc(/C=C/CO)cc1 | 134 to 135 |
| COc1cccc(C(=O)NC2(C(=O)c3cc(C)cc(C)c3)CC2)c1C | 174 to 176 |
| N#Cc1ccccc1C(Cl)(Cl)Cl | 98.9 to 100 |
| CC1(C)SC2C(NC(c3ccccc3)(c3ccccc3)c3ccccc3)C(=O)N2C1C#N (configuration not stated) | 116 to 119 |
| COc1ccc2c(CN3CCC[C@H]3C(=O)O)cc3cc4c(cc3c2c1)OCO4 | 145 to 146 |
| CCOC1=NS(=O)(=O)N=C1c1ccccc1 | 204 to 206 |
| OC1C(COC2CC2)OC(n2cnc3c(NC4CCCC4)ncnc32)C1O (configuration not stated) | 126 to 128 |
| O=c1c2ccccc2oc2cc(OCC3CO3)ccc12 (configuration not stated) | 157 to 158 |
| CN(CCCCOCC(=O)O)c1nnc(-c2ccccc2)c(-c2ccccc2)n1 | 108 to 110 |

| SMILES | melting point [°C] |
| --- | --- |
| CCOC(=O)CNC(=O)Nc1c(-c2ccccc2OC)c2ccccc2c(=O)n1C | 128 to 130 |
| Cc1cc2c(cc1C(F)(F)F)N(c1ccc(C(=O)O)cc1)CCC[C@@H]2N(Cc1cc(C(F)(F)F)cc(C(F)(F)F)c1)c1nnn(C)n1 | 101 to 105 |
| COCCc1nc2c(N)nc3ccccc3c2n1Cc1ccccc1 | 202 to 204 |
| CCCCCNC(=S)NC(=Nc1ccccc1)c1ccccc1 | 157 to 158 |
| NC(=O)Nc1ccc(OCCn2ccnc2)cc1 | 199 to 201 |
| COc1cccc2c1S(=O)(=O)c1ccccc1C2(CCOS(C)(=O)=O)CCOS(C)(=O)=O | 200 to 202 |
| COc1ccc(C(=O)CCCCCl)cc1S(N)(=O)=O | 135 to 136 |
| O=c1[nH][nH]c(C(F)(F)F)c1Cc1ccc2nccnc2c1 | 266 to 268 |
| COc1ccc2c(c1)NCC(c1ccccc1)O2 (configuration not stated) | 95 to 100 |
| N#Cc1cc2c(c(-c3ccccc3Cl)c1)OC(CN)C2 (configuration not stated) | 173 to 175 |
| O=C(Cn1nc(-c2ccccc2O)nc1-c1ccccc1O)NCCN1CCOCC1 | 180 to 182 |
| O=c1c(Cl)c(Cl)cnn1CC=Cc1ccccc1 | 98 to 99 |
| COc1ccc(CN(C)C(=O)CCCc2ccc([N+](=O)[O-])cc2)cc1OC | 90 |
| N#Cc1c(C(=O)O)cnn1-c1ccc(Br)cc1 | 209 to 211 |
| CCCCCS(=O)(=O)NC(=O)/C=C/c1cc(C(C)C)nn1Cc1ccc(Cl)cc1Cl | 149 to 151 |
| C=CC(CC(O)C(CC(C)C)NC(=O)C(Cc1c[nH]cn1)NC(=O)C(Cc1ccccc1)Cc1ccccc1)C(C)C (configuration not stated) | 120 |
| Cc1cc2c(s1)c(=O)c(S(C)=O)cn2C (configuration not stated) | 263 to 264 |
| Cc1ccc(Cl)cc1-c1noc(CCC#Cc2ccccn2)n1 | 66 to 68 |
| NC1=NC(N)(c2ccc(S(=O)(=O)NN3CCOCC3)cc2)NC=N1 (configuration not stated) | > 260 |
| CCOC(=O)CCCOc1cccc2cc(C(C)=O)oc12 | 47.1 to 48.4 |
| O=C1N=NC(c2nc(Cl)c(Cl)[nH]2)=N1 | 176 to 178 |
| N#Cc1cnn2c1N(C(=O)CN1CCN(C(=O)Nc3cccc(C(F)(F)F)c3)CC1)CC=C2c1cccc(C(F)(F)F)c1 | 147 to 149 |
| Cc1nc(-c2cc(CCc3ccccc3)no2)sc1C(=O)NCc1ccccc1 | 114 to 115 |
| COc1cc(C(=O)N(C(C)C)C2CCCCC2)ccc1Cn1c(C)nc2ncccc21 | 201 to 203 |
| CC(=O)OC(CF)c1sccc1S(N)(=O)=O (configuration not stated) | 97 to 98 |

| SMILES | melting point [°C] |
| --- | --- |
| CC(=O)OC1CCC2CCC3C(CCC4(C)C(O)C(N5CCCCC5)CC34)C2(C)C1 (configuration not stated) | 162 to 166 |
| N#Cc1ccc(CC(NC(=O)CC(NS(=O)(=O)c2ccc3ccccc3c2)c2ccccc2)C(=O)N2CCCC2)cc1 (configuration not stated) | 195 to 200 |
| COc1cccc(NC(=O)N=C2CCCN2C)c1 | 123 to 125 |
| C=CCc1cccc(C[C@H](NC(=O)OC(C)(C)C)[C@H](O)CCl)c1 | 123 to 126 |
| Cc1cc(-n2ccnc2)c2cccc(OCc3c(Cl)ccc(S(=O)(=O)N4CCC[C@H]4C(=O)NCC4CC4)c3Cl)c2n1 | 100 |
| COc1c(OCc2ccccc2)cc(C(=O)Cl)cc1OCc1ccccc1 | 124 to 127 |
| O=S(=O)(c1ccc(-n2cccc2)cc1)c1cccc2cnccc12 | 207 to 210 |
| N#Cc1ccc(-c2cncc(OC3SCC(O)C(O)C3O)c2)cc1Cl (configuration not stated) | 202 to 204 |
| Cc1ccc2c3c(c(=O)oc2c1)CNCC3 | 128 to 130 |
| CC(C)c1nc(C(F)(F)F)ccc1C(=O)c1c(S(C)(=O)=O)noc1C1CC1 | 105 to 106 |
| O=C1C(CCO)Oc2ccccc2N1Cc1cccc2ccccc12 (configuration not stated) | 100 to 104 |
| CCOC(=O)c1cccc(-c2ccc(-c3ccc(C(F)(F)F)cc3)o2)c1 | 93 to 94 |
| CON=C(C)CCc1nc2c(N)nc3ccccc3c2n1CC(C)(C)O | 182 to 184 |
| COc1ccc(CNc2c(NC(C)(C)C)c(=O)c2=O)c(OC)c1 | 225 to 226 |
| Oc1cc(Oc2ncc(C(F)(F)F)cc2Cl)ccc1Br | 124 to 127 |
| CCNc1c(C(=O)OCC)c(C)nc(Cl)c1[N+](=O)[O-] | 36 to 37 |
| O=C(Nc1cccc2ccccc12)N[C@H]1C[C@H](C(=O)O)Nc2cc(Cl)cc(Cl)c21 (relative stereo) | 241 to 242 |
| CNC(=O)c1cc(C)c(C(c2cc(F)ccc2F)S(=O)(=O)c2ccc(Cl)cc2)cn1 (configuration not stated) | 200 to 201 |
| COc1ccc(CNc2nc(NC[C@@H](C)O)nc3c2ncn3C(C)C)c(O)c1 | 106 to 108 |
| CC(C)(C)OC(=O)NC[C@H]1CN(c2ccc3c(c2)CN(C(=O)OCc2ccccc2)CC3)C(=O)O1 | 135 to 137 |
| CCCCCc1cc(C(=O)O)c(C)o1 | 47 to 48 |
| Cn1c(N2CCOCC2)nc(C(=O)NCc2ccc(Cl)c(Cl)c2)c(O)c1=O | 100 to 102 |
